The text below walks through data of paper PMC11240926, “Integrating In Silico and In Vitro Approaches to Identify Natural Peptides with Selective Cytotoxicity against Cancer Cells” (International Journal of Molecular Sciences, 2024).

Data set [1] has as its system cancer cell lines. Kind of data set: MTT colorimetric assay, panel of over 30 cancer cell lines. It is filed as cell-based, human. The settings on record: 48 h. On the procedure:
(§1) The culture medium used for the cancer cell lines included 10% fetal bovine serum (Gibco, Grand Island, NY, USA) and 1% penicillin/streptomycin (Gibco) in 5% CO2 at 37 °C. Cells were seeded into 96-well tissue culture plates at a concentration of 1 × 10^4 cells per 200 μL per well and allowed to settle overnight. The cells were then treated with serial dilutions of various ACPs. After 48 h of incubation, cell viability for each line was assessed using the MTT colorimetric assay (Sigma-Aldrich, St. Louis, MO, USA). The peptide preparation and dilution in our anticancer assays are as follows: ACPs (10 mg) were dissolved in 100 μL of DMSO to generate 100 mg/mL stock solutions. These stock solutions were then diluted 100 times with a culture medium to obtain a 1 mg/mL solution. Finally, serial dilutions were prepared in a culture medium containing 1% DMSO to achieve the desired ACP concentrations for the MTT assay.
In general terms: Tetrazolium assays rely on reduction of a dye to a coloured formazan, in cell work by metabolically active cells.

In data set [2] the test system is BT474 cells. The format is cell-based, human. The settings on record: MTT, 48 h. How it is done:
as §1

For data set [3], the system named is A431. The format is cell-based, human. As to conditions: Skin, MTT assay. How it is done: as §1
In data set [4] the test system is A549. It is filed as cell-based, human. As to conditions: Lung, MTT assay. On the procedure:
as §1

Data set [5] deals with Hs578T. It is filed as cell-based, human. As to conditions: Breast, MTT assay. From the text:
Supplement ijms-25-06848-s001.zip/IJMS_Supplementary Table S2.xlsx, sheet "Table S2" | column: ACP1; ACP2; ACP3; ACP4; ACP5; ACP6; ACP7; ACP8; ACP9; ACP10; ACP11; ACP12

The subject of data set [6] is DBTRG brain tumor cells. It is filed as cell-based. As to conditions: human. How it is done:
as §1

For data set [7], the system named is Burkitt lymphoma-derived Daudi cell line. The format is cell-based, human. The settings on record: MTT, 48 h. On the procedure:
as §1

The test system of data set [8] is triple-negative breast cancer cell line MDA-MB-231. It is filed as cell-based, human. The settings on record: MDA-MB-231, MTT, 48 h. How it is done:
as §1

The subject of data set [9] is HepG2. It is filed as cell-based, human. As to conditions: HepG2 liver cancer cells, MTT, 48 h. On the procedure:
as §1

The subject of data set [10] is Mahlavu. It is filed as cell-based, human. The settings on record: Mahlavu liver cancer cells, MTT, 48 h. On the procedure: as §1
The test system of data set [11] is SKOV-3 ovarian carcinoma. It is filed as cell-based, human. As to conditions: MTT, 48 h. How it is done:
as §1

Data set [12] has as its system HT1080 fibrosarcoma. The format is cell-based, human. The settings on record: MTT, 48 h. On the procedure:
as §1

For data set [13], the system named is DU145 prostate cancer. It is filed as cell-based, human. The settings on record: MTT, 48 h. How it is done: as §1
The mark [14] stands for this setting: endometrial and hypopharyngeal cancer cells.

Ends that are not written are not given here. Peptide text beside a SMILES is read from it.

In the case of `CC[C@H](C)[C@H](NC(=O)[C@H](CS)NC(=O)[C@@H]1CCCN1C(=O)[C@@H](NC(=O)[C@H](Cc1ccccc1)NC(=O)[C@@H](NC(=O)[C@H](CS)NC(=O)[C@H](CO)NC(=O)[C@H](CCC(=O)O)NC(=O)CNC(=O)[C@H](CS)NC(=O)[C@@H]1CCCN1C(=O)[C@@H](NC(=O)[C@@H](NC(=O)CN)C(C)C)[C@@H](C)CC)C(C)C)[C@@H](C)CC)C(=O)N[C@@H](CO)C(=O)N[C@H](C(=O)N[C@@H](CC(C)C)C(=O)N[C@@H](CC(C)C)C(=O)NCC(=O)N[C@@H](CS)C(=O)N[C@@H](CO)C(=O)N[C@@H](CS)C(=O)N[C@@H](CCCCN)C(=O)N[C@@H](CC(N)=O)C(=O)N[C@@H](CCCCN)C(=O)N[C@H](C(=O)N[C@@H](CS)C(=O)N[C@@H](Cc1ccc(O)cc1)C(=O)N[C@@H](CCCNC(=N)N)C(=O)N[C@@H](CC(N)=O)C(=O)O)C(C)C)[C@@H](C)O` [ACP6] (H-GVIPCGESCVFIPCISTLLGCSCKNKVCYRN-OH), the “anticancer effects, in words” value in [1] (setting [14]) is on record as “affected”; in [1] (liver and breast cancers), “notable anticancer effects”.
Turning to `CC[C@H](C)[C@H](NC(=O)[C@@H]1CCCN1C(=O)[C@H](Cc1c[nH]c2ccccc12)NC(=O)[C@H](CO)NC(=O)[C@H](CS)NC(=O)[C@H](CO)NC(=O)[C@H](CS)NC(=O)CNC(=O)[C@@H]1CCCN1C(=O)[C@@H](NC(=O)[C@H](CC(N)=O)NC(=O)[C@H](CS)NC(=O)[C@@H](NC(=O)CNC(=O)CNC(=O)[C@H](Cc1ccccc1)NC(=O)[C@H](CS)NC(=O)[C@@H](NC(=O)[C@H](CCC(=O)O)NC(=O)CNC(=O)[C@H](CS)NC(=O)[C@@H](NC(=O)[C@@H](NC(=O)[C@@H]1CCCN1C(=O)[C@@H](NC(=O)[C@@H](NC(=O)[C@@H](N)CO)C(C)C)[C@@H](C)O)[C@@H](C)CC)C(C)C)[C@@H](C)O)[C@@H](C)O)[C@@H](C)O)C(=O)N[C@@H](CS)C(=O)N[C@H](C(=O)N[C@@H](CCCCN)C(=O)O)[C@@H](C)O` [ACP10] (H-SVTPIVCGETCFGGTCNTPGCSCSWPICTK-OH; N-terminus and C-terminus assumed), the “cytotoxicity, in words” value in data set [2] is recorded as “pronounced cytotoxicity”.
The term IC50 denotes the concentration at which inhibition is half-maximal. Read a high IC50 as a need for much substance. With EQQQQQQPQNRRFRE [ACP11], in data set [3], the “Cytotoxicity against cancer cell line A431” value is on record as over 1000. Moreover, in data set [4], the “Cytotoxicity against cancer cell line A549” value is on record as over 1000. Further, in data set [5], the “Cytotoxicity against cancer cell line Hs578T” value is over 1000. The molecule also returned an IC50 in [6] of 32.1 µM.
FKGGGPYGQGVTRGQDLSGKDF [ACP12]: the “anticancer activity, in words” value in data set [7] and in [8] was “demonstrated anticancer activity” each time. The “Cytotoxicity against cancer cell line A549” value in [4] is on record as over 1000.
Consider GLLGVLGSVAKHVLPHVVPVIAEHL [ACP9], for which the “cytotoxicity, in words” value in data set [9] and in data set [10] was “particularly effective” each time.
For the molecule “KSCCPNTTGRNIYNTCRFGGGSREVCASLSGCKIISASTCPSYPDK (cysteines drawn unpaired) [ACP7]”, the “anticancer effects, in words” value was “affected” in data set [1] (setting [14]); “notable anticancer effects” in [1] (liver and breast cancers).
In the case of “YKQCHKKGGHCFPKEKICIPPSSDFGKMDCRWRWKCCKKGSG (cysteines drawn unpaired) [ACP8]”, the “selective cytotoxicity, in words” value in data set [11], in data set [12] and in [13] was “selectively targeting” each time.
